Measured values from PubChem BioAssay AID1963863 (Molecular Pharmacology Branch, DTP, NCI, 2024).

Tested on: 931267-113-T-J1-PDC KRAS spheroid with HUVEC/MSC, viability
Assay: Anticancer human tumor 931267-113-T-J1-PDC patient-derived colon adenocarcinoma cell line growth inhibition [KRAS2]
Settings: for IC50: curve of first compound; for viability, T/C: stronger effect = lower value
Summary of the method: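 KRAS-mutant tumor cells were grown as spheroids with HUVEC endothelial cells and human MSCs as stroma. Targeted agents were tested alone and with KRAS pathway inhibitors. Doses started at or near clinical Cmax, or 10 microM, descending half-log.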

[1] = second compound 0.0316 µM, first compound 0.000316 µM
[2] = second compound 0.0316 µM, first compound 0.001 µM
[3] = second compound 0.0316 µM, first compound 0.00316 µM
[4] = second compound 0.0316 µM, first compound 0.01 µM
[5] = second compound 0.0316 µM, first compound 0.0316 µM
[6] = second compound 0.1 µM, first compound 0.000316 µM
[7] = second compound 0.1 µM, first compound 0.001 µM
[8] = second compound 0.1 µM, first compound 0.00316 µM
[9] = second compound 0.1 µM, first compound 0.01 µM
[10] = second compound 0.1 µM, first compound 0.0316 µM
[11] = second compound 0.316 µM, first compound 0.000316 µM
[12] = second compound 0.316 µM, first compound 0.001 µM
[13] = second compound 0.316 µM, first compound 0.00316 µM
[14] = second compound 0.316 µM, first compound 0.01 µM
[15] = second compound 0.316 µM, first compound 0.0316 µM
[16] = second compound 1 µM, first compound 0.000316 µM
[17] = second compound 1 µM, first compound 0.001 µM
[18] = second compound 1 µM, first compound 0.00316 µM
[19] = second compound 1 µM, first compound 0.01 µM
[20] = second compound 1 µM, first compound 0.0316 µM
[21] = second compound 3.16 µM, first compound 0.000316 µM
[22] = second compound 3.16 µM, first compound 0.001 µM
[23] = second compound 3.16 µM, first compound 0.00316 µM
[24] = second compound 3.16 µM, first compound 0.01 µM
[25] = second compound 3.16 µM, first compound 0.0316 µM
[26] = second compound 0.0316 µM, first compound 0.1 µM
[27] = second compound 0.1 µM, first compound 0.1 µM
[28] = second compound 0.316 µM, first compound 0.1 µM
[29] = second compound 1 µM, first compound 0.1 µM
[30] = second compound 3.16 µM, first compound 0.1 µM
[31] = second compound 0.0316 µM, first compound 0.316 µM
[32] = second compound 0.0316 µM, first compound 1 µM
[33] = second compound 0.0316 µM, first compound 3.16 µM
[34] = second compound 0.0316 µM, first compound 10 µM
[35] = second compound 0.1 µM, first compound 0.316 µM
[36] = second compound 0.1 µM, first compound 1 µM
[37] = second compound 0.1 µM, first compound 3.16 µM
[38] = second compound 0.1 µM, first compound 10 µM
[39] = second compound 0.316 µM, first compound 0.316 µM
[40] = second compound 0.316 µM, first compound 1 µM
[41] = second compound 0.316 µM, first compound 3.16 µM
[42] = second compound 0.316 µM, first compound 10 µM
[43] = second compound 1 µM, first compound 0.316 µM
[44] = second compound 1 µM, first compound 1 µM
[45] = second compound 1 µM, first compound 3.16 µM
[46] = second compound 1 µM, first compound 10 µM
[47] = second compound 3.16 µM, first compound 0.316 µM
[48] = second compound 3.16 µM, first compound 1 µM
[49] = second compound 3.16 µM, first compound 3.16 µM
[50] = second compound 3.16 µM, first compound 10 µM
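Also: compound exposure lasted 7 days before the readout.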
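For viability, T/C in this document: 100% = DMSO vehicle control viability.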

## CC(=O)Nc1cccc(-n2c(=O)n(C3CC3)c(=O)c3c(Nc4ccc(I)cc4F)n(C)c(=O)c(C)c32)c1 + C=CC(=O)N1CCN(c2nc(OCC3CCCN3C)nc3c2CCN(c2cccc4cccc(C)c24)C3)CC1CC#N
Second compound 0.0316 µM
  IC50: 6.25 nM
Second compound 0.1 µM
  IC50: 11.9 nM
Second compound 0.316 µM
  IC50: 4.45 nM
Second compound 1 µM
  IC50: 1.48 nM
Second compound 3.16 µM
  IC50: < 0.1 nM
Second compound 0.0316 µM, first compound 0.0001 µM
  viability, T/C: 98.9%
[1]
  viability, T/C: 78%
[2]
  viability, T/C: 69.3%
[3]
  viability, T/C: 54.7%
[4]
  viability, T/C: 60.3%
[5]
  viability, T/C: 13.2%
Second compound 0.1 µM, first compound 0.0001 µM
  viability, T/C: 83%
[6]
  viability, T/C: 82.4%
[7]
  viability, T/C: 64.2%
[8]
  viability, T/C: 72.6%
[9]
  viability, T/C: 59.5%
[10]
  viability, T/C: 8.65%
Second compound 0.316 µM, first compound 0.0001 µM
  viability, T/C: 69.7%
[11]
  viability, T/C: 83%
[12]
  viability, T/C: 54.9%
[13]
  viability, T/C: 53.8%
[14]
  viability, T/C: 42.7%
[15]
  viability, T/C: 9.24%
Second compound 1 µM, first compound 0.0001 µM
  viability, T/C: 74.7%
[16]
  viability, T/C: 59.8%
[17]
  viability, T/C: 45.9%
[18]
  viability, T/C: 52.9%
[19]
  viability, T/C: 28.2%
[20]
  viability, T/C: 9.56%
Second compound 3.16 µM, first compound 0.0001 µM
  viability, T/C: 0.22%
[21]
  viability, T/C: 0.24%
[22]
  viability, T/C: 0.28%
[23]
  viability, T/C: 0.24%
[24]
  viability, T/C: 0.21%
[25]
  viability, T/C: 0.25%

## CN(C)C/C=C/C(=O)Nc1cc2c(Nc3ccc(F)c(Cl)c3)ncnc2cc1O[C@H]1CCOC1 + C=CC(=O)N1CCN(c2nc(OCC3CCCN3C)nc3c2CCN(c2cccc4cccc(C)c24)C3)CC1CC#N
Second compound 0.0316 µM
  IC50: > 100 nM
Second compound 0.1 µM
  IC50: > 100 nM
Second compound 0.316 µM
  IC50: > 100 nM
Second compound 1 µM
  IC50: > 100 nM
Second compound 3.16 µM
  IC50: < 0.316 nM
[1]
  viability, T/C: 82.1%
[2]
  viability, T/C: 86.9%
[3]
  viability, T/C: 98.2%
[4]
  viability, T/C: 68.6%
[5]
  viability, T/C: 78.3%
[26]
  viability, T/C: 75.8%
[6]
  viability, T/C: 89.2%
[7]
  viability, T/C: 98%
[8]
  viability, T/C: 65.7%
[9]
  viability, T/C: 62.1%
[10]
  viability, T/C: 65.9%
[27]
  viability, T/C: 64.1%
[11]
  viability, T/C: 77.6%
[12]
  viability, T/C: 70.7%
[13]
  viability, T/C: 69.3%
[14]
  viability, T/C: 62.2%
[15]
  viability, T/C: 66.2%
[28]
  viability, T/C: 70.7%
[16]
  viability, T/C: 59.1%
[17]
  viability, T/C: 72.6%
[18]
  viability, T/C: 70%
[19]
  viability, T/C: 72.1%
[20]
  viability, T/C: 53.1%
[29]
  viability, T/C: 59.6%
[21]
  viability, T/C: 0.31%
[22]
  viability, T/C: 0.19%
[23]
  viability, T/C: 0.24%
[24]
  viability, T/C: 0.2%
[25]
  viability, T/C: 0.21%
[30]
  viability, T/C: 0.47%

## COC(=O)c1ccc2c(C(=Nc3ccc(N(C)C(=O)CN4CCN(C)CC4)cc3)c3ccccc3)c(O)[nH]c2c1 + C=CC(=O)N1CCN(c2nc(OCC3CCCN3C)nc3c2CCN(c2cccc4cccc(C)c24)C3)CC1CC#N
Second compound 0.0316 µM
  IC50: 683 nM
Second compound 0.1 µM
  IC50: 1170 nM
Second compound 0.316 µM
  IC50: 647 nM
Second compound 1 µM
  IC50: 120 nM
Second compound 3.16 µM
  IC50: < 31.6 nM
[5]
  viability, T/C: 90.5%
[26]
  viability, T/C: 87.1%
[31]
  viability, T/C: 61.1%
[32]
  viability, T/C: 50.7%
[33]
  viability, T/C: 0.59%
[34]
  viability, T/C: 0.32%
[10]
  viability, T/C: 73.9%
[27]
  viability, T/C: 76.4%
[35]
  viability, T/C: 64.5%
[36]
  viability, T/C: 57.8%
[37]
  viability, T/C: 0.37%
[38]
  viability, T/C: 0.38%
[15]
  viability, T/C: 95%
[28]
  viability, T/C: 88.8%
[39]
  viability, T/C: 67.6%
[40]
  viability, T/C: 42.8%
[41]
  viability, T/C: 0.3%
[42]
  viability, T/C: 0.2%
[20]
  viability, T/C: 47.2%
[29]
  viability, T/C: 63.7%
[43]
  viability, T/C: 20.4%
[44]
  viability, T/C: 0.52%
[45]
  viability, T/C: 0.13%
[46]
  viability, T/C: 0.19%
[25]
  viability, T/C: 0.24%
[30]
  viability, T/C: 0.16%
[47]
  viability, T/C: 0.25%
[48]
  viability, T/C: 0.15%
[49]
  viability, T/C: 0.21%
[50]
  viability, T/C: 0.22%

## O=C(c1cc(Cc2n[nH]c(=O)c3ccccc23)ccc1F)N1CCN(C(=O)C2CC2)CC1 + C=CC(=O)N1CCN(c2nc(OCC3CCCN3C)nc3c2CCN(c2cccc4cccc(C)c24)C3)CC1CC#N
Second compound 0.0316 µM
  IC50: > 10000 nM
Second compound 0.1 µM
  IC50: > 10000 nM
Second compound 0.316 µM
  IC50: > 10000 nM
Second compound 1 µM
  IC50: > 10000 nM
Second compound 3.16 µM
  IC50: < 31.6 nM
[5]
  viability, T/C: 91%
[26]
  viability, T/C: 91.8%
[31]
  viability, T/C: 90.8%
[32]
  viability, T/C: 109%
[33]
  viability, T/C: 113%
[34]
  viability, T/C: 103%
[10]
  viability, T/C: 84.7%
[27]
  viability, T/C: 99.4%
[35]
  viability, T/C: 81.3%
[36]
  viability, T/C: 79%
[37]
  viability, T/C: 73.9%
[38]
  viability, T/C: 84.7%
[15]
  viability, T/C: 84.6%
[28]
  viability, T/C: 96.5%
[39]
  viability, T/C: 87%
[40]
  viability, T/C: 69.3%
[41]
  viability, T/C: 76.1%
[42]
  viability, T/C: 72.5%
[20]
  viability, T/C: 72.2%
[29]
  viability, T/C: 79.3%
[43]
  viability, T/C: 87.2%
[44]
  viability, T/C: 69.4%
[45]
  viability, T/C: 80.2%
[46]
  viability, T/C: 62.5%
[25]
  viability, T/C: 0.28%
[30]
  viability, T/C: 0.21%
[47]
  viability, T/C: 0.3%
[48]
  viability, T/C: 0.29%
[49]
  viability, T/C: 0.28%
[50]
  viability, T/C: 0.43%
